The results in this text go back to US20060216333A1, “Methods related to the treatment of mucosal associated conditions” (priority 2003, published 2006).

Assay [1] concerns MCP-1. The assay can be described thus: Serum and vaginal tissue MCP-1 after intravaginal dosing of rats (ELISA). The format is in vivo, rat. The conditions noted are these: cotton pellet device removed after 2 hours; for MCP-1 Tissue: vaginal tissue, per 200 mg. The protocol:
(§1) In the examples below the serum and intravaginal cytokine data were obtained using the following general test method.
(§2) Rats were acclimated to collars (Lomir Biomedical, Malone, N.Y.) around the neck on two consecutive days prior to actual dosing. Rats were collared to prevent removal of the device and ingestion of the drug. Animals were then dosed intravaginally with a removable device or with […] of cream. Single dosed rats received one intravaginal dose with samples collected at various times following dosing. Blood was collected by cardiac puncture. Blood was allowed to clot briefly at room temperature and serum was separated from the clot via centrifugation. The serum was stored at −20° C. until it was analyzed for cytokine concentrations.
(§3) Following blood collection, the rats were euthanized and their vaginal tract, including the cervix, was then removed and the tissue was weighed, placed in a sealed 1.8 mL cryovial and flash frozen in liquid nitrogen. The frozen vaginal tissue sample was then suspended in 1.0 mL of RPMI medium (Celox, St. Paul, Minn.) containing 10% fetal bovine serum (Atlas, Fort Collins, Colo.), 2 mM L-glutamine, penicillin/streptomycin and 2-mercaptoethanol (RPMI complete) combined with a protease inhibitor cocktail set III (Calbiochem, San Diego, Calif.). The tissue was homogenized using a Tissue Tearor (Biospec Products, Bartlesville, Okla.) for approximately one minute. The tissue suspension was then centrifuged at 2000 rpm for 10 minutes under refrigeration to pellet the debris, and the supernatant collected and stored at −20° C. until analyzed for cytokine concentrations.
(§4) ELISA kits for rat TNF were purchased from BD PharMingen (San Diego, Calif.) and the rat MCP-1 ELISA kits were purchased from BioSource Intl. (Camarillo, Calif.).
(§5) Both kits were performed according to manufacturer's specifications. Results for both TNF and MCP-1 are expressed in pg/mL and are normalized per 200 mg of tissue. […] “Post dosing” means after treatment initiation. For example, if a device was inserted a time 0 hours and removed at 2 hours and cytokines were assayed at 4 hours, then the cytokines were assayed at 4 hours post dosing.
A general note: An ELISA detects its analyte on a solid surface through an enzyme-linked reagent.

The subject of assay [2] is TNF. The assay can be described thus: Serum and vaginal tissue TNF after intravaginal dosing of rats (ELISA). The format is in vivo, rat. The conditions noted are these: cotton pellet device removed after 2 hours; for TNF Tissue: vaginal tissue, per 200 mg. The protocol: as §1, §2, §3, §4, §5
The mark [3] stands for this setting: 4 hours post dosing, 1% in 50/50 ISA/IPM, Example 6.
The mark [4] stands for this setting: 2 hr post dose, 5% in 50/50 ISA/IPM, Example 7.
The mark [5] stands for this setting: 4 hr post dose, 5% in 50/50 ISA/IPM, Example 7.
Where [6] appears, read: 6 hr post dose, 5% in 50/50 ISA/IPM, Example 7.

Regarding `COCCc1nc2c(N)nc3ccccc3c2n1CCCCNS(C)(=O)=O` [IRM 4, N-{4-[4-amino-2-(2-methoxyethyl)-1H-imidazo[4,5-c]quinolin-1-yl]butyl}methanesulfonamide], in assay [1] (setting [3]), the “MCP-1 Serum” value is on record as 105 pg/mL and the “MCP-1 Tissue” value is reported as 713 pg/mL. Also, in assay [2] (setting [3]), the “TNF Serum” value was determined as 0 pg/mL and the “TNF Tissue” value turned out to be 109 pg/mL.

For `CCCCNC(=O)NCCCn1c(CCCC)nc2c(N)nc3ccccc3c21` [IRM 5], in assay [1] (setting [3]), the “MCP-1 Serum” value was found to be 108 pg/mL and the “MCP-1 Tissue” value is 958 pg/mL. For the same molecule, in assay [2] (setting [3]), the “TNF Serum” value is 1 pg/mL and the “TNF Tissue” value was 358 pg/mL.

As to `CCCCc1nc2c(N)nc3ccccc3c2n1CCS(=O)(=O)C(C)C` [IRM 6, 2-butyl-1-{2-[(1-methylethyl)sulfonyl]ethyl}-1H-imidazo[4,5-c]quinolin-4-amine], in assay [1] (setting [3]), the “MCP-1 Serum” value is listed as 114 pg/mL and the “MCP-1 Tissue” value came out at 1840 pg/mL. In assay [2] (setting [3]), the “TNF Serum” value was found to be 1 pg/mL and the “TNF Tissue” value is 491 pg/mL.

For `CCOCc1nc2c(N)nc3ccccc3c2n1CCNC(=O)NC(C)C` [IRM 7, N-{2-[4-amino-2-(ethoxymethyl)-1H-imidazo[4,5-c]quinolin-1-yl]ethyl}-N′-isopropylurea], the “MCP-1 Serum” value amounted to 92 pg/mL in assay [1] (setting [4]), 93 pg/mL in assay [1] (setting [3]), 112 pg/mL in assay [1] (setting [5]) and 140 pg/mL in assay [1] (setting [6]). Besides, the “MCP-1 Tissue” value worked out at 498 pg/mL in assay [1] (setting [4]), 642 pg/mL in assay [1] (setting [3]), 851 pg/mL in assay [1] (setting [5]) and 670 pg/mL in assay [1] (setting [6]). Moreover, the “TNF Serum” value was 1 pg/mL in assay [2] (setting [4]), 0 pg/mL in assay [2] (setting [3]), 0 pg/mL in assay [2] (setting [5]) and 2 pg/mL in assay [2] (setting [6]). The “TNF Tissue” value worked out at 512 pg/mL in assay [2] (setting [4]), 219 pg/mL in assay [2] (setting [3]), 460 pg/mL in assay [2] (setting [5]) and 267 pg/mL in assay [2] (setting [6]).

In the case of `CCOCc1nc2c(N)nc3ccccc3c2n1CCOCCNC(=O)Nc1ccccc1` [IRM 8, N-(2-{2-[4-amino-2-(ethoxymethyl)-1H-imidazo[4,5-c]quinolin-1-yl]ethoxy}ethyl)-N′-phenylurea], in assay [1] (setting [3]), the “MCP-1 Serum” value came out at 82 pg/mL and the “MCP-1 Tissue” value came out at 331 pg/mL. In addition, in assay [2] (setting [3]), the “TNF Serum” value was 0 pg/mL and the “TNF Tissue” value amounted to 294 pg/mL.

For `Nc1nc2ccccc2c2c1ncn2CCOCc1ccncc1` [IRM 9, 1-[2-(pyridin-4-ylmethoxy)ethyl]-1H-imidazo[4,5-c]quinolin-4-amine], the results for the “MCP-1 Serum” value in assay [1] (setting [4]), in assay [1] (setting [5]) and in assay [1] (setting [6]) were 85 pg/mL, 131 pg/mL and 180 pg/mL, respectively. For the same molecule, the “MCP-1 Tissue” value in assay [1] (setting [4]) came to 328 pg/mL; in assay [1] (setting [5]) it was 1556 pg/mL; in assay [1] (setting [6]) it was 850 pg/mL. In addition, the “TNF Serum” value in assay [2] (setting [4]) is reported as 30 pg/mL; in assay [2] (setting [5]), 4 pg/mL; in assay [2] (setting [6]), 8 pg/mL. In addition, the “TNF Tissue” value is 597 pg/mL in assay [2] (setting [4]), 697 pg/mL in assay [2] (setting [5]) and 248 pg/mL in assay [2] (setting [6]).

Turning to `CCCCc1nc2c(N)nc3ccccc3c2n1CCCS(C)(=O)=O` [IRM 10, 2-butyl-1-[3-(methylsulfonyl)propyl]-1H-imidazo[4,5-c]quinoline-4-amine], the “MCP-1 Serum” value is listed as 111 pg/mL in assay [1] (setting [4]), 160 pg/mL in assay [1] (setting [5]) and 155 pg/mL in assay [1] (setting [6]). Moreover, the “MCP-1 Tissue” value is listed as 739 pg/mL in assay [1] (setting [4]), 1440 pg/mL in assay [1] (setting [5]) and 975 pg/mL in assay [1] (setting [6]). The results for the “TNF Serum” value in assay [2] (setting [4]), in assay [2] (setting [5]) and in assay [2] (setting [6]) were 16 pg/mL, 25 pg/mL and 10 pg/mL, respectively. Further, the “TNF Tissue” value in assay [2] (setting [4]) was found to be 1110 pg/mL; in assay [2] (setting [5]), 887 pg/mL; in assay [2] (setting [6]), 519 pg/mL.
